Series [1] deals with Green Peach Aphid ("GPA") (Myzus persicae) (MYZUPE). Nature of the series: Bioassays on Green Peach Aphid (GPA), foliar spray on infested cabbage seedlings. Conditions: 72 h, 200 ppm test solution sprayed on cabbage leaves until runoff, live aphids counted after three days at about 25° C., read-out: MYZUPE rating (% Control of Mortality, Abbott-corrected). The class given is in vivo. From the text: Example A Bioassays on Green Peach Aphid (“GPA”) (Myzus persicae) (MYZUPE.)
GPA is the most significant aphid pest of peach trees, causing decreased growth, shriveling of leaves, and the death of various tissues. It is also hazardous because it acts as a vector for the transport of plant viruses, such as potato virus Y and potato leafroll virus to members of the nightshade/potato family Solanaceae, and various mosaic viruses to many other food crops. GPA attacks such plants as broccoli, burdock, cabbage, carrot, cauliflower, daikon, eggplant, green beans, lettuce, macadamia, papaya, peppers, sweet potatoes, tomatoes, watercress and zucchini among other plants. GPA also attacks many ornamental crops such as carnations, chrysanthemum, flowering white cabbage, poinsettia and roses. GPA has developed resistance to many pesticides.
Several molecules disclosed herein were tested against GPA using procedures described below.
Cabbage seedling grown in 3-in pots, with 2-3 small (3-5 cm) true leaves, were used as test substrate. The seedlings were infested with […] (wingless adult and nymph stages) one day prior to chemical application. Four posts with individual seedlings were used for each treatment. Test compounds (2 mg) were dissolved in 2 mL of acetone/methanol (1:1) solvent, forming stock solutions of 1000 ppm test compound. The stock solutions were diluted 5× with 0.025% Tween 20 in water to obtain the solution at 200 ppm test compound. A hand-held aspirator-type sprayer was used for spraying a solution to both sides of the cabbage leaves until runoff. Reference plants (solvent check) were sprayed with the diluent only containing 20% by volume acetone/methanol (1:1) solvent. Treated plants were held in a holding room for three days at approximately 25° C. and ambient relative humidity (RH) prior to grading. Evaluation was conducted by counting the number of live aphids per plant under a microscope. Percent Control was measured by using Abbott's correction formula (W. S. Abbott, “A Method of Computing the Effectiveness of an Insecticide” J. Econ. Entomol 18 (1925), pp. 265-267) as follows. Corrected % Control=100*(X−Y)/X • where • X=No. of live aphids on solvent check plants and • Y=No. of live aphids on treated plants
The results are indicated in the table entitled “Table 1: GPA (MYZUPE) and sweetpotato whitefly-crawler (BEMITA) Rating Table”.

Series [2] relates to Sweetpotato Whitefly Crawler (Bemisia tabaci) (BEMITA). Kind of series: Bioassays on Sweetpotato Whitefly Crawler, foliar spray on infested cotton plants. Format: in vivo. The settings on record: 200 ppm test solution sprayed on cotton leaves until runoff, live nymphs counted after 8-9 days at 82° F., 50% RH, read-out: BEMITA rating (% Control of Mortality, Abbott-corrected). From the text:
Example B Bioassays on Sweetpotato Whitefly Crawler (Bemisia tabaci) (BEMITA.)
The sweetpotato whitefly, Bemisia tabaci (Gennadius), has been recorded in the United States since the late 1800s. In 1986 in Florida, Bemisia tabaci became an extreme economic pest. Whiteflies usually feed on the lower surface of their host plant leaves. From the egg hatches a minute crawler stage that moves about the leaf until it inserts its microscopic, threadlike mouthparts to feed by sucking sap from the phloem. Adults and nymphs excrete honeydew (largely plant sugars from feeding on phloem), a sticky, viscous liquid in which dark sooty molds grow. Heavy infestations of adults and their progeny can cause seedling death, or reduction in vigor and yield of older plants, due simply to sap removal. The honeydew can stick cotton lint together, making it more difficult to gin and therefore reducing its value. Sooty mold grows on honeydew-covered substrates, obscuring the leaf and reducing photosynthesis, and reducing fruit quality grade. It transmitted plant-pathogenic viruses that had never affected cultivated crops and induced plant physiological disorders, such as tomato irregular ripening and squash silverleaf disorder. Whiteflies are resistant to many formerly effective pesticides.
Cotton plants grown in 3-inch pots, with 1 small (3-5 cm) true leaf, were used at test substrate. The plants were placed in a room with whitefly adults. Adults were allowed to deposit eggs for 2-3 days. After a 2-3 day egg-laying period, plants were taken from the adult whitefly room. Adults were blown off leaves using a hand-held Devilbliss sprayer (23 psi). Plants with egg infestation (100-300 eggs per plant) were placed in a holding room for 5-6 days at 82° F. and 50% RH for egg hatch and crawler stage to develop. Four cotton plants were used for each treatment. Compounds (2 mg) were dissolved in 1 mL of acetone solvent, forming stock solutions of 2000 ppm. The stock solutions were diluted 10× with 0.025% Tween 20 in water to obtain a test solution at 200 ppm. A hand-held Devilbliss sprayer was used for spraying a solution to both sides of cotton leaf until runoff. Reference plants (solvent check) were sprayed with the diluent only. Treated plants were held in a holding room for 8-9 days at approximately 82° F. and 50% RH prior to grading. Evaluation was conducted by counting the number of live nymphs per plant under a microscope.

Molecules are shown by their SMILES. Counter-ions that a name gives are not always drawn.

A word on the melting point: it is the temperature of the solid-liquid transition. The compound `O=[N+]([O-])c1cn(-c2cccnc2)nc1Cl` [Compound 5c, 3-(3-Chloro-4-nitro-1H-pyrazol-1-yl)pyridine] showed a melting point of 141 to 143 °C. What is called mortality is the percentage killed. As to `O=C(O)/C=N/Nc1cccnc1` [Compound 6a, (E)-2-((2-Pyridin-3-yl)hydrazono)acetic Acid Hydrochloride], the mortality at 200 ppm in series [1] and in series [2] was 0 to 80% each time.

With `N#CC1CC(Cl)=NN1c1cccnc1` (stereo not drawn) [Compound 6b, 3-Chloro-1-(pyridine-3-yl)-4,5-dihydro-1H-pyrazole-5-carbonitrile], the mortality at 200 ppm was 0 to 80% in series [1] and < 0% in series [2]. On the same counts, the results for `COC(=O)C1CC(Cl)=NN1c1cccnc1` (stereo not drawn) [Compound 6c, Methyl 3-chloro-1-(pyridin-3-yl)-4,5-dihydro-1H-pyrazole-5-carboxylate] are 0 to 80% and 80 to 100%.

With `COC(=O)c1cc(Cl)nn1-c1cccnc1` [Compound 6d, Methyl 3-chloro-1-(pyridin-3-yl)-1H-pyrazole-5-carboxylate], the results for the mortality at 200 ppm in series [1] and in series [2] were 0 to 80% and < 0%, respectively.

`O=C(O)c1cc(Cl)nn1-c1cccnc1` [Compound 6e, 3-Chloro-1-(pyridine-3-yl)-1H-pyrazole-5-carboxylic Acid Hydrochloride]: the mortality at 200 ppm was 0 to 80% in series [1] and < 0% in series [2].

As for `CCOC(=O)C1CC(=O)NN1c1cccnc1` (stereo not drawn) [Compound 18.6, Ethyl 5-oxo-2-(pyridin-3-yl)pyrazolidine-3-carboxylate], the mortality at 200 ppm in series [1] and in series [2] was 0 to 80% throughout. For `CCOC(=O)C1CC(Cl)=NN1c1cccnc1` (stereo not drawn) [Compound 19.6, Ethyl 3-chloro-1-(pyridin-3-yl)-4,5-dihydro-1H-pyrazole-5-carboxylate], the mortality at 200 ppm in series [1] and in series [2] was 0 to 80% throughout.

(Values after US9862702B2, “Processes for the preparation of pesticidal compounds” (Dow AgroSciences LLC, priority 2013, dated 2018).)
